Measured values as given in the supplement of paper PMC7600603.

Legend:
DLD1 NRF2-GOF [1] = conditions: 72 h; CellTiter-Glo viability
Method in brief: (§1)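 DLD1 colorectal cancer cells, an isogenic pair either NRF2 wild-type or carrying a CRISPR gain-of-function, were cultured in DMEM with 10% FBS and treated in 384-well plates with library compounds at 5 concentrations across a 10,000-fold range. CellTiter-Glo viability was read on a Pherastar FS reader after 72 h and normalised to vehicle wells and 100-μM positive-control wells. Four-parameter logistic dose-response fits were applied. EC50 and drug sensitivity score, a normalised area under the curve, were taken from these fits.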

DLD1 NRF2-WT [2] = conditions: 72 h; CellTiter-Glo viability
Method in brief: as §1

DLD1 NRF2-WT [3] = assay: TC50 cytotoxicity; higher = less toxic; conditions: 72 h; CellTox Green cytotoxicity
Method in brief: (§2)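 TC50 and drug sensitivity score, a normalised area under the curve, were derived by logistic dose-response fits of cytotoxicity. The cells were an isogenic DLD1 colorectal cancer pair, NRF2 wild-type or CRISPR-edited, kept in DMEM with 10% FBS. Compounds were tested in 384-well plates at 5 concentrations across a 10,000-fold range for 72 h. Readings with CellTox Green on a Pherastar FS reader were normalised to vehicle wells and 100-μM positive-control wells.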

DLD1 NRF2-GOF [4] = assay: drug sensitivity score (DSS) cytotoxicity (DSS score); higher = more toxic; extreme values may be limits of the assay; conditions: 72 h; CellTox Green cytotoxicity
Method in brief: as §2

DLD1 NRF2-WT [5] = assay: as above; conditions: 72 h; CellTox Green cytotoxicity
Method in brief: as §2

DLD1 NRF2-GOF [6] = assay: drug sensitivity score (DSS) viability (DSS score); higher = more sensitive; extreme values may be limits of the assay; conditions: 72 h; CellTiter-Glo viability
Method in brief: as §1

DLD1 NRF2-WT [7] = assay: as above; conditions: 72 h; CellTiter-Glo viability
Method in brief: as §1

DLD1 NRF2-GOF [8] = assay: TC50 cytotoxicity; higher = less toxic; conditions: 72 h; CellTox Green cytotoxicity
Method in brief: as §2

Structure (SMILES) | EC50 viability (DLD1 NRF2-GOF [1]) | EC50 viability (DLD1 NRF2-WT [2]) | TC50 cytotoxicity (DLD1 NRF2-WT [3]) | drug sensitivity score (DLD1 NRF2-GOF [4]) | drug sensitivity score (DLD1 NRF2-WT [5]) | drug sensitivity score (DLD1 NRF2-GOF [6]) | drug sensitivity score (DLD1 NRF2-WT [7]) | TC50 cytotoxicity (DLD1 NRF2-GOF [8])
CN1C(=O)N[C@H](Cc2c[nH]c3c(Cl)cccc23)C1=O [Necrostatin 2] | > 10000 nM | > 10000 nM |  |  |  | 0 | 0 | 
Cn1ncc(Cl)c1-c1cc(C(=O)N[C@H](CN)Cc2cccc(F)c2)sc1Cl [Afuresertib] | > 1000 nM |  | > 1000 nM | 0 | 0 | 0.6 | 1 | > 1000 nM
COc1cc([C@@H]2c3cc4c(cc3[C@@H](O[C@@H]3O[C@@H]5CO[C@@H](C)O[C@H]5[C@H](O)[C@H]3O)[C@H]3COC(=O)[C@H]23)OCO4)cc(OC)c1O [Etoposide] | 936 nM | 1090 nM |  | 1.8 | 2.7 | 6.3 | 8.5 | > 10000 nM
CC[C@]12C=CCN3CC[C@@]4(c5cc([C@@]6(C(=O)OC)C[C@@H]7C[C@@H](C(C)(F)F)CN(Cc8c6[nH]c6ccccc86)C7)c(OC)cc5N(C)[C@H]4[C@@](O)(C(=O)OC)[C@@H]1OC(C)=O)[C@@H]32 [Vinflunine] | 162 nM | 143 nM | > 1000 nM | 1 | 1.3 | 6.9 | 7 | 
O=C(CCCCCCC(=O)Nc1ccc([C@H]2O[C@@H](CSc3nc(-c4ccccc4)c(-c4ccccc4)o3)C[C@@H](c3ccc(CO)cc3)O2)cc1)NO [Tubacin] | 1710 nM |  | > 10000 nM | 0 | 0 | 3 | 2.7 | > 10000 nM
COc1cc(OC)c(/C=C/S(=O)(=O)Cc2ccc(OC)c(NCC(=O)O)c2)c(OC)c1 [Rigosertib] | 107 nM | 106 nM |  | 9.4 | 5.9 | 19 | 21 | 190 nM
CC[C@@H]1C(=O)N(C)c2cnc(Nc3ccc(C(=O)N[C@H]4CC[C@H](N5CCN(CC6CC6)CC5)CC4)cc3OC)nc2N1C(C)C [Volasertib] | 4.8 nM | 5.1 nM |  | 6 | 7 | 18.8 | 20.7 | 
CNC(=O)c1cc(Oc2ccc(NC(=O)Nc3ccc(Cl)c(C(F)(F)F)c3)cc2)ccn1 [Sorafenib] | 87.1 nM |  | > 1000 nM | 0 | 0 | 3.3 | 1.2 | > 1000 nM
CC(C)C(=O)Nc1ccc([N+](=O)[O-])c(C(F)(F)F)c1 [Flutamide] | 796 nM |  | > 10000 nM | 0 | 0 | 4.6 | 0.9 | > 10000 nM
Cc1nc(NC(=O)N2CCC[C@H]2C(N)=O)sc1-c1ccnc(C(C)(C)C(F)(F)F)c1 [Alpelisib] | > 2500 nM |  | > 2500 nM | 0 | 0 | 0.3 | 2.4 | > 2500 nM
Cn1cc(-c2[nH]c3cc(NC(=O)[C@H](N)C4CCCCC4)cc4c3c2C=NNC4=O)cn1 | 812 nM | 878 nM | > 10000 nM | 2.7 | 1 | 8.8 | 9 | 
CO[C@H]1C(=O)[C@]2(C)[C@@H](OC)C[C@H]3OC[C@@]3(OC(C)=O)[C@H]2[C@H](OC(=O)c2ccccc2)[C@]2(O)C[C@H](OC(=O)[C@H](O)[C@@H](NC(=O)OC(C)(C)C)c3ccccc3)C(C)=C1C2(C)C [Cabazitaxel] | 1.6 nM | 1.5 nM |  | 0.3 | 6.6 | 25.7 | 27.1 | > 1000 nM
Cc1nc(Nc2n[nH]c3c2CN(C(=O)N[C@H](CN(C)C)c2ccccc2)C3(C)C)c2sccc2n1 | 21.5 nM | 21 nM |  | 1.8 | 2.1 | 27.5 | 28.2 | > 10000 nM
CN1CCN(c2ccc3nc(-c4c(N)c5c(F)cccc5[nH]c4=O)[nH]c3c2)CC1 [Dovitinib] | > 10000 nM | > 10000 nM |  |  |  | 0 | 1.6 | 

Second part, led by results:

EC50 viability (DLD1 NRF2-GOF [1]) | EC50 viability (DLD1 NRF2-WT [2]) | Structure (SMILES) | TC50 cytotoxicity (DLD1 NRF2-WT [3]) | drug sensitivity score (DLD1 NRF2-GOF [4]) | drug sensitivity score (DLD1 NRF2-WT [5]) | drug sensitivity score (DLD1 NRF2-GOF [6]) | drug sensitivity score (DLD1 NRF2-WT [7]) | TC50 cytotoxicity (DLD1 NRF2-GOF [8])
578 nM | 344 nM | CN[C@@H]1C[C@H]2O[C@@](C)([C@@H]1OC)n1c3ccccc3c3c4c(c5c6ccccc6n2c5c31)C(=O)N[C@H]4O [UCN-01] | 302 nM | 5 | 10.4 | 12.6 | 16.4 | 
> 10000 nM |  | COc1cc2c(NC3CCN(C(C)C)CC3)nc(C3CCCCC3)nc2cc1OCCCN1CCCC1 [UNC0638] | > 10000 nM | 0 | 0 | 0.2 | 2.4 | > 10000 nM
> 1000 nM | 99.7 nM | CC1CCC(n2c3cnccc3c3cnc(Nc4ccc5c(n4)CCN(C(=O)CO)C5)nc32)CC1 (configuration not stated) [AMG-925] |  |  |  | 0.5 | 3.2 | 
92.6 nM | > 1000 nM | Cc1[nH]nc(C(F)(F)F)c1Cc1sc2c(c1C(=O)N1C[C@](C)(O)CO1)c(=O)n(C)c(=O)n2C(C)C [AZD3965] |  |  |  | 3.5 | 2.3 | 
638 nM | 576 nM | Cc1cc(Nc2cc(N3CCN(C)CC3)nc(/C=C/c3ccccc3)n2)n[nH]1 [ENMD-2076] | > 10000 nM | 4.4 | 1.4 | 11.3 | 11.4 | 
36.5 nM | 12.9 nM | Cc1sc2c(c1C)C(c1ccc(Cl)cc1)=N[C@@H](CC(=O)Nc1ccc(OCCOCCOCCOCCNc3cccc4c3C(=O)N(C3CCC(=O)NC3=O)C4=O)cc1)c1nnc(C)n1-2 (some centres not stated) [ARV-825] |  | 1.1 | 4 | 5 | 9.1 | > 300 nM
